Laboratory results: patent publication US6486097B2, “Herbicidal fatty acid and maleic hydrazide salt compositions” (W. Neudorff GmbH KG, priority 2000, dated 2002)

Experiments:
dandelions [1] = test: Field dandelion test with added alcohol and gum (Example 6); type: in vivo; details: 0.2 L/m^2, re-sprayed after 14 days, 10 days after second spray
Protocol: This test compared the herbicidal activity of NH4C9, NH4MH and (NH4C9+NH4MH) with added alcohol and gums on dandelion mortality. The gum Kelzan S (Merck & Co., Inc.) at 0.08% was used as a thickener.
This test also investigated the effect of adding NH4MH to emulsified C9 acid. The emulsified C9 acid solution was made by adding 3.5 g of C9 acid with 1.0 g of Tween 80 and 95.5 g water (no ammonium hydroxide was added). For the C9 acid+NH4MH solution, 13 g of water was replaced by 13 g of the 6.9% NH4MH stock solution.
Every solution was sprayed onto 16 field-grown, medium-sized dandelions. All of the dandelions had leaves longer than 10 cm. The dandelions were sprayed at a rate of 0.2 L/m^2. All plants were re-sprayed 14 days after the first spray. The number of dead plants was assessed 10 days after the second spray.

dandelions [2] = test: Greenhouse dandelion test with a gum (Example 4), mortality; type: in vivo; details: pH 7.38
Excerpt: (§1) This test studied the effect of thickening NH4C9+NH4MH solutions on plant mortality. The solutions were thickened by adding 0.5 g of the xanthan gum Rhodopol 23 suspended in 3.0 g propylene glycol to 96.5 g solution. The pH values of the test solutions were adjusted to 7.38.

dandelions [3] = test: Dandelion test of NH4C9 with a range of NH4MH concentrations (Example 3); type: in vivo; details: sprayed to wetness, 36 days after spraying
Protocol: This test examined NH4C9 combined with a range of NH4MH concentrations. All of the NH4C9 treatments contained 3.9% NH4C9. All of the solutions were sprayed to wetness onto 10 dandelions. The number of dead plants was assessed 36 days after spraying.

[4] = Viscosity of test solutions (Example 4); type: physicochemical; details: pH 7.38
Excerpt: as §1

[5] = same number of moles of NH4MH and MH
Protocol: The compositions of the solutions are listed below. Note that slightly more NH4MH was added than MH acid, as NH4MH has a higher molecular weight. The same number of moles of NH4MH and MH were used.
Viscosity is measured in centipoise (milli pascal seconds). Water has a viscosity of 1.0.

dandelions [6] = test: Greenhouse dandelion test of TopGun with and without MH (Example 5); type: in vivo; details: NH4MH 1.15%; sprayed to run-off; 15 days after spraying
Protocol: TopGun is a proprietary emulsified formulation containing 18% C9 (nonanoic) acid present as free acid. TopGun was diluted to 1.8% C9 acid. Each solution was sprayed to run-off onto ten 20 cm diameter dandelions grown in the greenhouse. The number of dead plants was assessed 15 days after spraying.

dandelions [7] = test: Field dandelion test (Example 2); type: in vivo; details: 0.2 L/m^2, re-sprayed after 7 days, 38 days after first spray
Protocol: This test compared the herbicidal activity of NH4C9, NH4MH, and NH4C9+NH4MH on dandelion mortality. This test also investigated the effect of adding isopropyl alcohol (IPA) to NH4C9+NH4MH. Nine dandelions were grown in 0.5 m^2 areas of soil in the field. At the time of spraying the dandelions were very large, with leaves longer than 25 cm. Every treatment was sprayed onto 4 areas of soil. Every 0.5 m^2 plot received 100 ml of solution (0.2 L/m^2). All of the areas were re-sprayed 7 days after the first spray. The number of dead plants was assessed 38 days after the first spray.
Round Up (35.6% glyphosate N-(phosphonomethyl) glycine) produced by Monsanto, Killex (9.5% 2,4-D (2,4-dichlorophenoxy) acetic acid, Mecoprop (5% 2-(4-chloro-2-methylphenoxy)) propanoic acid and 0.9% Dicamba (3,6-dichloro-o-anisic acid) by Green Cross were diluted as per label instructions and included as standards.

dandelions [8] = test: Potted dandelion test of NH4C9 and NH4C11:1 with and without MH (Example 7); type: in vivo; details: for Number of Dead Plants of 15 Total: 0.5 L/m^2, sprayed twice 8 days apart, 8 days after second spray; for Contact herbicidal activity (in words): without NH4MH, treated plants were able to re-grow
Excerpt: Five-month-old potted dandelions were sprayed with solutions of ammonium fatty acid soaps in combination with NH4MH. The solutions contained 3.9% ammonium fatty acid soaps and 1.15% NH4MH. The plants were sprayed at a rate of 0.5 L/m^2. The plants were sprayed twice, with 8 days between sprays. Final observations were taken 8 days after the second spray. Fifteen plants were used per treatment.

[9] = C9 acid 3.5% emulsified with Tween 80

CCCCCCCCC(=O)O [C9 acid, Nonanoic acid]
Dead Plants (#/16) (dandelions [1]; [9]): 3 #/16 | Dead Plants (%) (dandelions [1]; [9]): 19%

N.O=c1ccc(O)n[nH]1 [NH4MH, ammonium salt of maleic hydrazide]
Mortality (#/10) (dandelions [2]; NH4MH 1.15%): 0 #/10 | Mortality (#/10 plants) (dandelions [3]; NH4MH 1.15%): 0 #/10 plants | Viscosity (Cps) ([4]; NH4MH 1.15%): 1 Cps | Solubility in NH4C9 concentrate compared with MH [5]: superior solubility | Number of Dead Plants (#/10 Plants) (dandelions [6]): 0 #/10 Plants | Dead Plants (#/16) (dandelions [1]; NH4MH 0.9% only): 0 #/16 | Dead Plants (%) (dandelions [1]; NH4MH 0.9% only): 0% | Dead Plants (#/36) (dandelions [7]; NH4MH 1.15%): 1 #/36 | Dead Plants (%) (dandelions [7]; NH4MH 1.15%): 3%

CCCCCCCCC(=O)O.N [NH4C9, ammonium salt of nonanoic acid]
Mortality (#/10) (dandelions [2]; NH4C9 2.2%): 1 #/10 | Mortality (#/10 plants) (dandelions [3]; NH4C9 3.9%): 0 #/10 plants | Viscosity (Cps) ([4]; NH4C9 2.2%): 1 Cps | Number of Dead Plants of 15 Total (dandelions [8]; NH4C9 3.9%): 1 | Contact herbicidal activity (in words) (dandelions [8]): good contact herbicides | Dead Plants (#/16) (dandelions [1]; NH4C9 3.9%): 2 #/16 | Dead Plants (%) (dandelions [1]; NH4C9 3.9%): 13% | Dead Plants (#/36) (dandelions [7]; NH4C9 3.9%): 0 #/36 | Dead Plants (%) (dandelions [7]; NH4C9 3.9%): 0%

O=c1ccc(=O)[nH][nH]1 [MH, 1,2-dihydro-3,6-pyridazine-dione]
Number of Dead Plants of 15 Total (dandelions [8]; MH only 1%): 0

C=CCCCCCCCCC(=O)O.N [NH4C11:1]
Number of Dead Plants of 15 Total (dandelions [8]; NH4C11:1 3.9%): 2 | Contact herbicidal activity (in words) (dandelions [8]): good contact herbicides
